Patent US8076368B2, “Percutaneous absorption type cerebral protective agent” (Lead Chemical Co., Ltd,, priority 2003, dated 2011)

Test system: rat-transient focal cerebral ischemia model
Assay: Rat-transient focal cerebral ischemia model (middle cerebral artery closure 2 h, TTC staining)
Type: in vivo
Conditions: injectable solution, intravenously two times (immediately after and 30 minutes after restoration of blood flow), 3 mg/kg

CC1=NN(c2ccccc2)C(=O)C1 [3-methyl-1-phenyl-2-pyrazolin-5-one]
effect on area of cerebral infarction compared with the control group (in words): almost same as that of the control group
